Results from US20230365558A1, “TETRAHYDROISOQUINOLINE DERIVATIVE AND USE THEREOF” (MEDSHINE DISCOVERY INC., priority 2020, published 2023).
Where two headings read alike, the source gives them in different places.

Legend:
PRMT5 enzyme = PRMT5 enzyme (Homo sapiens (Human), UniProt O14744); experiment: PRMT5 enzyme inhibitory activity assay (LANCE Ultra TR-FRET); type: biochemical
Description: Experimental objective: To test the inhibitory effect of compounds on PRMT5 enzyme activity
Experimental materials: PRMT5 enzyme
The plate was incubated at 25° C. for 30 min, then added with substrate, and reacted at 25° C. for 90 min. After 90 min, the detection reagent was added to the 384-well plate using PerkinElmer LANCE Ultra TR-FRET standard method to combine with the enzyme-substrate reaction product. […] Raw data were used to calculate the inhibition rate of the test compounds using the following equation: […]
(§1) The inhibition rates were imported into Excel separately to calculate the inhibition rates of compounds at different concentrations, and then XLfit software was used to plot inhibition curves and calculate relevant parameters, including minimum inhibition rate, maximum inhibition rate and IC50.

[1] = tested on: Z-138 non-Hodgkin's lymphoma cells; experiment: In vitro anti-proliferation assay of Z-138 cells (CellTiter-Glo, 6 days); type: cell-based, human; conditions: read-out: IC50 (nM), in vitro anti-proliferative activity on Z-138 tumor cells
Description: The plate was incubated at 37° C., CO2 and 100% relative humidity for 6 days. Samples were processed using Promega CellTiter-Glo Luminescent Cell Viability Assay Kit (Promega-G7571) standard method, and the luminescent signal was detected on a TECAN Spark®10M plate reader. Raw data were used to calculate the inhibition rate of the test compounds using the following equation: […]
as §1

[2] = tested on: MDA-MB-468 human breast cancer cells; experiment: Anti-proliferative activity on MDA-MB-468 cells (CellTiter-Glo, 7 days); type: cell-based; conditions: read-out: IC50 (nM), in vitro anti-proliferative activity on MDA-MB-468 tumor cells
Description: CellTiter-Glo (chemiluminescent cell viability detection reagent, purchased from Promega).
MDA-MB-468 cells were planted in a white 384-well plate with 40 μL of cell suspension per well, which contained 1000 MDA-MB-468 cells. The cell plate was cultured in a CO2 incubator overnight. […] 78 μL of culture medium was added to a middle plate, and then 2 μL of gradient diluted compound per well was transferred to the middle plate according to the corresponding position. After being thoroughly mixed, 10 μL per well was transferred to the cell plate. […] The cell plate was cultured in a CO2 incubator for 7 days. Another cell plate was prepared, and the signal value was read on the day of administration as the maximum value (Max value in the equation below) to participate in data analysis. 10 μL of chemiluminescent cell viability detection reagent per well was added to the cell plate, and the plate was incubated at room temperature for 10 min to stabilize the luminescent signal. A multi-label analyzer was used for reading. After the incubation of the cell plate with the compound was completed, 10 μL of chemiluminescent cell viability detection reagent per well was added to the cell plate, and the plate was incubated at room temperature for 10 min to stabilize the luminescent signal. A multi-label analyzer was used for reading.

[3] = Pharmacokinetic evaluation in CD-1 mice; conditions: CD-1 mice
Description: Experimental objective: To study the pharmacokinetic parameters of the compounds in CD-1 mice
Animal experimental design: Male CD-1 mice (28.08 to 29.01 g, 6 to 7 weeks old), purchased from Shanghai Family Planning Research Institute, n=2/group, 4 mice in total; blood collection time points (h): 0.083 (intravenous injection only), 0.25 (intragastric administration only), 0.5, 1, 2, 4, 8, 10 and 24; compound dose by tail vein injection: 1 mg/kg; single dose by intragastric administration: 5 mg/kg; intravenous and intragastric administration vehicles: 20% N,N-dimethylacetamide aqueous solution, 20% hydroxypropyl-β-cyclodextrin aqueous solution, 5% DMSO/50% PEG400/45% water for injection or 10% Solutol/30% PEG400/60% water for injection. All animals had free access to water during the experiment, fasted overnight before administration, and resumed food supply 4 hours after administration. The entire animal experiment complied with the Institutional Animal Care and Use Committee (IACUC) animal welfare.
Sample collection and storage: After administration, approximately 0.03 mL of blood was collected from the saphenous vein of the mouse at each time point into a pre-frozen commercial EDTA-K2 tube, and placed on wet ice until centrifugation. Blood samples were centrifuged at 4° C., 3,200 g for 10 min. Plasma was collected separately, transferred to a pre-labeled 96-well plate, fast frozen on dry ice, and stored at −70±10° C. until LC-MS/MS analysis.
Pre-treatment of plasma samples: 3 μL of unknown, standard curve, QC, diluted QC and single and double blank samples were taken and placed in 1.5 mL tubes, and 60 μL of internal standard solution (internal standard: Labetalol 100 ng/mL acetonitrile solution, double blank with the same volume of pure acetonitrile) was added. The samples were vortexed for at least 15 seconds, and centrifuged at 4° C., 12,000 g for 15 min. 50 μL of the supernatant was taken and placed on a clean 96-well plate, and 200 μL of 70% acetonitrile was added. The plate was vortex at 800 rpm for 10 min, and centrifuged at 4° C., 3,220 g for 5 min. 2.0 μL of the supernatant was taken for LC-MS/MS analysis. 10-fold sample dilution procedure: 2 μL of the sample was added to 18 μL of blank matrix; 2-fold sample dilution procedure: 2 μL of the sample was added to 2 μL of blank matrix. Plasma was processed in the same manner as undiluted samples. The linear range was 4.00 to 6000 nM. Plasma concentrations would be analyzed with Triple Quad 6500 Plus, and pharmacokinetic parameters would be calculated with Phoenix WinNonlin 6.3.

[4] = tested on: human mantle cell lymphoma Z-138 cells; conditions: Z-138 xenograft; for T/C (%) (Day 21) / TGI (%) (Day 21): 80 mg/kg PO BID × 21, Day 21; for RTV (Day 21) / Tumor volume (Day 21): 80 mg/kg PO BID × 21, Day 21, Mean ± SEM; for Tumor volume (Day 21) / Tumor volume (Day 0): n = 6; for Tumor volume (Day 0): Day 0 (at grouping), Mean ± SEM
[5] = tested on: human breast cancer MDA-MB-468 cells; experiment: Subcutaneous xenograft tumor BALB/c mouse model of human breast cancer MDA-MB-468 cells; type: in vivo; conditions: MDA-MB-468 xenograft
Description: Experimental materials: 6 to 8 weeks old Balb/c female mice
Routine digestion with trypsin-EDTA was performed twice a week for passaging.
Group administration was started when the average tumor volume reached 130 mm^3.

[6] = Hygroscopicity by dynamic vapor sorption (DVS); type: physicochemical; conditions: 25° C./80% RH
Description: (3) Dynamic Vapor Sorption (DVS) Method
Detailed DVS instrument information and parameters are shown in Table 5, and the classification of hygroscopicity evaluation is shown in Table 6:
Instrument: SMS DVS intrinsic Dynamic Vapor Sorption. The crystal form A of compound 46a (about 10 mg) was taken and placed in a DVS sample tray for testing.

[7] = injection administration (1 mg/kg)
[8] = 100 mg/kg PO BID × 4 W, Day 28, Mean ± SEM

Sequence of PRMT5 enzyme (O14744 whole entry): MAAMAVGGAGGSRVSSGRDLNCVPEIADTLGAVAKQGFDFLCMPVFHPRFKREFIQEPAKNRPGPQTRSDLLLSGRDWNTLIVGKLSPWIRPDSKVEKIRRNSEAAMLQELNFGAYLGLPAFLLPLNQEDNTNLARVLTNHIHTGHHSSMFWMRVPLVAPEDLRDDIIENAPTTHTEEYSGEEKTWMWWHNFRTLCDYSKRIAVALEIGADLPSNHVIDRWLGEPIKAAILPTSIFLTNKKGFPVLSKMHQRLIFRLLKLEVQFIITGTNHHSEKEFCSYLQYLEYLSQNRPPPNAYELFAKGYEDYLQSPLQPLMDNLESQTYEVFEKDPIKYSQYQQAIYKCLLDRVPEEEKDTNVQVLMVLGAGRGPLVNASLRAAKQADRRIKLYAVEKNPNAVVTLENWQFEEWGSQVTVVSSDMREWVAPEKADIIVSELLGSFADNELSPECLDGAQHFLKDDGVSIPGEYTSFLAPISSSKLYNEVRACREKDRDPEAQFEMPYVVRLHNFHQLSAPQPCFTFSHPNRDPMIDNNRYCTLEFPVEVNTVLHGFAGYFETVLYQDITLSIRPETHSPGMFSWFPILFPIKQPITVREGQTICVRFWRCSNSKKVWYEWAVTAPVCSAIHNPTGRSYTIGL
Sequence of PRMT5 enzyme (Q9BQA1 whole entry partner): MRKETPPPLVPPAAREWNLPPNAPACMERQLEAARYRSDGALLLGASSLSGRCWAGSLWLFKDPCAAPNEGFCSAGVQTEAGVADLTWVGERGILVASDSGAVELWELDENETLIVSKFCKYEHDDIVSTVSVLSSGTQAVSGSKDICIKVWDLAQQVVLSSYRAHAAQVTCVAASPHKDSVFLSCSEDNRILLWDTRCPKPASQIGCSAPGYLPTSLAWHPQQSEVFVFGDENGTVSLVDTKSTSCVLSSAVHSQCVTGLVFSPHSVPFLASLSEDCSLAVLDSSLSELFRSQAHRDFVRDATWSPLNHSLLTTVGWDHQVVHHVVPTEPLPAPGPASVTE

Structure (SMILES): O=C(NC[C@H](O)CN1CCc2ccccc2C1)c1cnc2c(c1)NC(=O)C1(CC1)C2 [Compound 39]
- IC50 (PRMT5 enzyme): 34 nM
- IC50 [1]: 12 nM
- IC50 [2]: 12 nM
- Clearance rate CL [3, 7]: 33.6 mL/min/kg
- Concentration integral AUC [3, 7]: 1.214 µM·h
- Half-life T1/2 [3, 7]: 33 min
- Bioavailability F ([3]; oral administration (5 mg/kg)): 20.0%
- Concentration integral AUC ([3]; oral administration (5 mg/kg)): 1.208 µM·h
- T/C (%) (Day 21) [4]: 12.1%
- TGI (%) (Day 21) [4]: 94.8%
- RTV (Day 21) [4]: 1.66 + 0.42
- Tumor volume (Day 21) [4]: 179 + 42 mm^3
- Tumor volume (Day 0) [4]: 108 ± 7 mm^3

Structure (SMILES): C[C@H](NC(=O)c1cnc2c(c1)NC(=O)C1(CC1)O2)[C@H](O)CN1CCc2ccccc2C1 [Compound 46a]
- IC50 (PRMT5 enzyme): 58 nM
- IC50 ([1]; Homo sapiens, Z-138, 144 h): 11 nM
- IC50 ([2]; Homo sapiens, 168 h): 5 nM
- T/C (%) ([5]; 100 mg/kg PO BID × 4 W, Day 28): 33.29%
- TGI (%) ([5]; 100 mg/kg PO BID × 4 W, Day 28): 107.01%
- RTV (Day 28) [5, 8]: 0.88 ± 0.06
- Tumor volume (Day 28) [5, 8]: 115 ± 13.8 mm^3
- Tumor volume (Day 0) ([5]; Day 0 (at grouping), Mean ± SEM): 130 ± 10.5 mm^3
- T/C (%) (Day 21) [4]: 1.7%
- TGI (%) (Day 21) [4]: 105.8%
- RTV (Day 21) [4]: 0.24 + 0.11
- Tumor volume (Day 21) [4]: 27 + 13 mm^3
- Tumor volume (Day 0) [4]: 107 ± 8 mm^3

Structure (SMILES): C[C@H](NC(=O)c1cnc2c(c1)NC(=O)C1(CC1)O2)[C@H](O)CN1CCc2ccccc2C1 [crystal form A of compound 46a]
- Hygroscopicity classification [6]: slightly hygroscopic
- moisture absorption weight gain ΔW % [6]: 0.8%
